# From US6696431B2, “26,27-homologated-20-EPI-2-alkylidene-19-nor-vitamin D compounds” (Wisconsin Alumni Research Foundation, priority 1997, dated 2004)
# Marks after values point to notes of the source that are not given here.
# Legend:
# [1] = tested on: Vitamin D-Deficient Rats on a Low-Calcium Diet; assay: Bone calcium mobilization (serum Ca) in vitamin D-deficient rats on a low-calcium diet (Tables 4, 6); assay type: in vivo, rat
# vitamin D-deficient rats [2] = assay: Serum calcium (bone calcium mobilization) after a single dose (Table 2); assay type: in vivo, rat; details: single intrajugular dose 650 pmol, 24 h later, mean±SEM
# Protocol: (§1) Male Holtzman strain weanling rats were obtained from the Sprague Dawley Co. (Indianapolis, Ind.) and fed the 0.47% calcium, 0.3% phosphorus diet described by Suda et al. (J. Nutr. 100, 1049-1052, 1970) for 1 week and then fed the same diet containing 0.02% calcium and 0.3% phosphorus for 2 additional weeks. At this point, they received a single intrajugular injection of the indicated dose dissolved in 0.1 ml of 95% propylene glycol/5% ethanol. Twenty-four hours later they were sacrificed and intestinal calcium transport and serum calcium were determined as described in Table 1. The dose of the compounds was 650 pmol and there were 5 animals per group. The data are expressed as mean±SEM.
# vitamin D-deficient rats [3] = assay: Serum calcium (bone calcium mobilization), chronic doses for 7 days (Table 1); assay type: in vivo, rat; details: for Serum Calcium: intraperitoneal, 24 h after last dose, mean±SEM; for bone calcium mobilization, in words: 130 and 260 pmol/day
# Protocol: (§2) Male weanling rats were obtained from Sprague Dawley Co. (Indianapolis, Ind.) and fed a 0.47% calcium, 0.3% phosphorus vitamin D-deficient diet for 1 week and then given the same diet containing 0.02% calcium, 0.3% phosphorus for 2 weeks. During the last week they were given the indicated dose of compound by intraperitoneal injection in 0.1 ml 95% propylene glycol and 5% ethanol each day for 7 days. The control animals received only the 0.1 ml of 95% propylene glycol, 5% ethanol. Twenty-four hours after the last dose, the rats were sacrificed and intestinal calcium transport was determined by everted sac technique as previously described and serum calcium determined by atomic absorption spectrometry on a model 3110 Perkin Elmer instrument (Norwalk, Conn.). There were 5 rats per group and the values represent mean±SEM.
# [4] = tested on: Vitamin D-Deficient Rats on a Low-Calcium Diet; assay: Intestinal calcium transport in vitamin D-deficient rats on a low-calcium diet (Tables 4, 6); assay type: in vivo, rat
# vitamin D-deficient rats [5] = assay: Intestinal calcium transport (everted sac), chronic doses for 7 days (Table 1); assay type: in vivo, rat; details: for Intestinal Calcium Transport (S/M): intraperitoneal, 24 h after last dose, mean±SEM; for intestinal calcium transport, in words: chronic 7 days, 130 or 260 pmol/day, 1,25-(OH)2D3 at 260 pmol/day only
# Protocol: as §2
# vitamin D-deficient rats [6] = assay: Intestinal calcium transport after a single dose (Table 2); assay type: in vivo, rat; details: single intrajugular dose 650 pmol, 24 h later, mean±SEM
# Protocol: as §1
# HL-60 cells = assay: Differentiation of HL-60 promyelocytes to monocytes (NBT reduction); assay type: cell-based; details: for HL-60 Differentiation ED50: concentration inducing 50% maturation, NBT reduction; for induction of differentiation of HL-60 cells to the monocyte, in words: FIG. 2; for HL-60 Differentiation Activity ratio: ratio of analog ED50 to ED50 for 1α,25-(OH)2D3
# [7] = target: T1, porcine intestinal vitamin D receptor (Sus scrofa, UniProt A3RGC1); assay: Competitive binding to the porcine intestinal vitamin D receptor; details: for EC50: concentration for 50% displacement of radiolabeled 1α,25-(OH)2D3, read-out: VDR Binding ED50; for VDR Binding ratio: ratio of analog ED50 to ED50 for 1α,25-(OH)2D3
# T1 construct: from tissue; host or cells: porcine intestine
# T1 sequence (A3RGC1 1-427): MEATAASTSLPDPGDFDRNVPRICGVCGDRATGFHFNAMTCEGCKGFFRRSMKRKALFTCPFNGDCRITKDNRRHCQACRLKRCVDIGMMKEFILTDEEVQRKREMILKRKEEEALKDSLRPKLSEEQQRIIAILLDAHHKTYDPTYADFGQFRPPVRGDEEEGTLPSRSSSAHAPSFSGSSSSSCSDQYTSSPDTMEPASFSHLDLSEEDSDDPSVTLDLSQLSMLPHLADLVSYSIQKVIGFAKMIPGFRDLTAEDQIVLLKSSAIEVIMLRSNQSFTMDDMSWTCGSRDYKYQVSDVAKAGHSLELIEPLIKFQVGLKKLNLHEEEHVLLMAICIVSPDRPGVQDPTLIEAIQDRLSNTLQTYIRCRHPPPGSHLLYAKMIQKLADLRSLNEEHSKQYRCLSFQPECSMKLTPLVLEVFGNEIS
# [8] = 260 pmol daily for 7 days i.p., Table 4 and Table 6 panel 1
# [9] = 260 pmol daily for 7 days i.p., Table 6 panel 2
# [10] = 15 pmol daily for 7 days i.p., Table 4 and Table 6 panel 1
# [11] = 32 pmol daily for 7 days i.p., Table 4 and Table 6 panel 1
# [12] = 65 pmol daily for 7 days i.p., Table 6 panel 2
EC50 [7] [nM],VDR Binding ratio [7],SMILES,"Serum Ca (mean ± SEM) [1, 9]",Serum Calcium (vitamin D-deficient rats [2]) [mg/100 ml],Serum Calcium (vitamin D-deficient rats [3]; 130 pmol/day for 7 days) [mg/100 ml],Serum Calcium (vitamin D-deficient rats [3]; 260 pmol/day for 7 days) [mg/100 ml],"Ca Transport S/M (mean ± SEM) [4, 9]",Intestinal Calcium Transport (S/M) (vitamin D-deficient rats [5]; 260 pmol/day for 7 days),"intestinal calcium transport, in words (vitamin D-deficient rats [5])",Intestinal Calcium Transport (S/M) (vitamin D-deficient rats [6]),HL-60 Differentiation Activity ratio (HL-60 cells),HL-60 Differentiation ED50 (HL-60 cells) [nM],other results
–,–,"C=C1/C(=C\C=C2/CCC[C@]3(C)[C@@H]([C@H](C)CCCC(C)(C)O)CC[C@@H]23)C[C@@H](O)C[C@@H]1O [1,25-(OH)2D3, 1α,25-dihydroxyvitamin D3, reference compound]",6.3 ± 0.2^c,5.7 ± 0.2,13.8,7.2 ± 0.5,5.0 ± 0.4^c S/M,6.2 ± 0.4,expected elevation,5.8 ± 0.3,–,–,"Serum Ca (mean ± SEM) [1, 8]: 5.6 ± 0.2^c; Ca Transport S/M (mean ± SEM) [4, 8]: 7.2 ± 0.6^c S/M; HL-60 Differentiation ED50 (HL-60 cells; listed as 1α,25-(OH)2D3): 4 nM"
–,–,"C=C1[C@H](O)CC(=C/C=C2\CCC[C@]3(C)[C@@H]([C@H](C)CCCC(C)(C)O)CC[C@@H]23)C[C@H]1O [2-Methylene-19-Nor-1,25-(OH)2D3, 1α,25-dihydroxy-2-methylene-19-nor-vitamin D3]",–,6.4 ± 0.1,9.9 ± 0.2,9.6 ± 0.3,–,4.9 ± 0.6,no intestinal calcium transport activity,5.3 ± 0.5,–,–,"bone calcium mobilization, in words (vitamin D-deficient rats [3]; chronic 7 days): extremely strong bone calcium mobilization; bone calcium mobilization activity relative to 1,25-(OH)2D3 (native hormone) (vitamin D-deficient rats [3]; chronic 7 days, for the 20(S) compound at 130 pmol/day): 10-100 times; Intestinal Calcium Transport (S/M) (vitamin D-deficient rats [5]; 130 pmol/day for 7 days): 5.3 ± 0.4 S/M; induction of differentiation of HL-60 cells to the monocyte, in words (HL-60 cells): activity similar to 1,25-(OH)2D3"
–,–,"C=C1[C@H](O)CC(=C/C=C2\CCC[C@]3(C)[C@@H]([C@@H](C)CCCC(C)(C)O)CC[C@@H]23)C[C@H]1O [2-Methylene-19-Nor-20(S)-1,25-(OH)2D3, 20(S)-1α,25-dihydroxy-2-methylene-19-nor-vitamin D3]",–,8.0 ± 0.1,13.8 ± 0.5,14.4 ± 0.6,–,4.6 ± 0.7,no significant change,5.5 ± 0.6,–,–,"Serum Calcium (vitamin D-deficient rats [3]; 260 pmol/day for 7 days, listed as 2-methylene-19-nor-20(S)-1,25-(OH)2D3): 14 mg/100 ml; bone calcium mobilization, in words (vitamin D-deficient rats [3]; chronic 7 days): most potent compound tested; Intestinal Calcium Transport (S/M) (vitamin D-deficient rats [5]; 130 pmol/day for 7 days): 5.7 ± 0.8 S/M; induction of differentiation of HL-60 cells to the monocyte, in words (HL-60 cells): extremely potent"
4.3,4.9,"C=C1[C@H](O)CC(=C/C=C2\CCC[C@@]3(C)C2CCC3[C@@H](C)CCCC(O)(CC)CC)C[C@H]1O (stereo partly drawn) [Compound 35, 20(S)-1α,25-Dihydroxy-2-methylene-26,27-dihomo-19-norvitamin D3]",–,–,–,–,–,–,–,–,0.01,–,"Serum Ca (mean ± SEM) [1, 10]: 5.3 ± 0.1^d^^1; Serum Ca (mean ± SEM) [1, 11]: 7.3 ± 0.4^d^^2; Ca Transport S/M (mean ± SEM) [4, 10]: 4.0 ± 0.4^d^^1 S/M; Ca Transport S/M (mean ± SEM) [4, 11]: 8.2 ± 0.6^d^^2 S/M"
29,33,"C=C1[C@H](O)CC(=C/C=C2\CCC[C@@]3(C)C2CCC3[C@@H](C)CCC=C2CCCC2)C[C@H]1O (stereo partly drawn) [Compound 45, 20(S)-26,27-dimethylene-1α-hydroxy-2-methylene-24-dehydro-19-norvitamin D3]",10.8 ± 0.3^d^^2,–,–,–,4.3 ± 0.5^d^^2 S/M,–,–,–,1.0,4.1,"Serum Ca (mean ± SEM) [1, 12]: 5.7 ± 0.1^d^^1; Ca Transport S/M (mean ± SEM) [4, 12]: 5.5 ± 0.8^d^^1 S/M"
15,17,"C=C1[C@H](O)CC(=C/C=C2\CCC[C@@]3(C)C2CCC3[C@@H](C)CCCC2(OC)CCCC2)C[C@H]1O (stereo partly drawn) [Compound 46, 20(S)-26,27-dimethylene-1α-hydroxy-25-methoxy-2-methylene-19-norvitamin D3]",10.8 ± 0.3^e^^2,–,–,–,4.3 ± 0.5^e^^2 S/M,–,–,–,1.1,4.3,"Serum Ca (mean ± SEM) [1, 12]: 5.7 ± 0.1^e^^1; Ca Transport S/M (mean ± SEM) [4, 12]: 5.5 ± 0.8^e^^1 S/M"
2.7,3.1,"C=C1[C@H](O)CC(=C/C=C2\CCC[C@@]3(C)C2CCC3[C@@H](C)CCCC2(O)CCCC2)C[C@H]1O (stereo partly drawn) [Compound 47, 20(S)-1α,25-dihydroxy-26,27-dimethylene-2-methylene-19-norvitamin D3]",–,–,–,–,–,–,–,–,0.01,0.036,"Serum Ca (mean ± SEM) [1, 10]: 5.4 ± 0.2^d^^1; Serum Ca (mean ± SEM) [1, 11]: 6.4 ± 0.2^d^^2; Ca Transport S/M (mean ± SEM) [4, 10]: 5.6 ± 0.6^d^^1 S/M; Ca Transport S/M (mean ± SEM) [4, 11]: 5.3 ± 0.5^d^^2 S/M"
